The record followed here is US20260049072A1, “HETEROCYCLIC COMPOUND FOR INDUCING DEGRADATION OF MUTANT KRAS PROTEIN” (Astellas Pharma Inc., priority 2022, published 2026).

One test has as its system PK-59 xenograft. As to the kind of experiment: Anti-tumor activity in PK-59 xenograft mouse. It is filed as in vivo. As to conditions: 10 mg/kg, tail vein, once a week for two weeks, male nude mice. As to the method: (§1) Test Example 4: Evaluation of Anti-Tumor Activity in Human KRAS G12V Mutant-Positive Pancreatic Cancer Line PA-TU-8902 or Human KRAS G12D Mutant-Positive Pancreatic Cancer Line PK-59 Xenograft Mouse
(§2) PA-TU-8902 cells or PK-59 cells (RIKEN BRC, RCB1901) were cultured using DMEM medium or RPMI-1640 medium containing 10% fetal bovine serum, respectively, in the presence of 5% CO2 at 37° C. The PA-TU-8902 cells or the PK-59 cells were collected and suspended in PBS, and two equivalents of VitroGel Hydrogel Matrix (from TheWell Bioscience) was added. A cell suspension prepared at 1.0-2.0×10^7 cells/mL was subcutaneously inoculated in a volume of 100 μL in 4- to 6-week-old male nude mice (BALB/c-nu (nu/nu), from The Jackson Laboratory Japan, Inc.). After about two weeks of the inoculation, the mice were divided into groups so that all the groups had approximately the same tumor volume and body weight, and administration of a subject compound was started on the next day. The test was conducted for five mice for each of a solvent group and a subject compound administration group. The solvent used was a solvent containing ethanol (from FUJIFILM Wako), an aqueous (2-hydroxypropyl)-β-cyclodextrin (HP-PCD) solution (from ROQUETTE), HCO-40 (from Nikko Chemicals Co., Ltd.) dissolved in a 5% glucose solution (from Otsuka Pharmaceutical) at a ratio of 4%, 0.5%, and 9%, respectively. The compound was dissolved using the solvent. The subject compound dissolved in the solvent or the solvent was administered into tail vein. The administration was performed once or twice a week for two weeks. The tumor size and the body weight were measured twice a week. The tumor volume was calculated by using the following formula.
(§3) [Tumor volume (mm^3)]=[Major axis of tumor (mm)]×[Minor axis of tumor (mm)]^2×0.5
(§4) The tumor growth inhibition (%) by the subject compound was calculated with the tumor volume of the subject compound administration group on the previous day of the start of the administration taken as 100% inhibition and the tumor volume of the solvent group of the day of the final measurement taken as 0% inhibition.

The next test has as its system PA-TU-8902 xenograft. In words: Anti-tumor activity in PA-TU-8902 xenograft mouse. Type of test: in vivo. As to conditions: 30 mg/kg, tail vein, twice a week for two weeks, male nude mice. As to the method:
as §1, §2, §3, §4

The test system of test [1] is phosphorylation of ERK (Thr202/Tyr204). As to the kind of experiment: ERK phosphorylation inhibitory activity, cell ELISA, PA-TU-8902. Type of test: cell-based. As to conditions: Homo sapiens, PaTu 8902; PA-TU-8902 cells, 24 hours, 100% = 300 nM trametinib; read-out: IC50 (ERK phosphorylation inhibition). As to the method:
Test Example 2: Evaluation of ERK Phosphorylation Inhibitory Activity on Human KRAS G12V Mutant-Positive Pancreatic Cancer Line PA-TU-8902
The ERK phosphorylation inhibitory activities of subject compounds were evaluated by measuring phosphorylation of the 202th threonine (Thr202) and the 204th tyrosine (Tyr204) of ERK located downstream of the KRAS signal by cell ELISA.
PA-TU-8902 cells were seeded at 36 µL/well on a 384-well plate (from Greiner bio-one) to give 5.0×10^3 cells per well. The cell culture conditions were the same conditions as in Test Example 1-1.
The next day, the subject compounds (9 points having final concentrations in the range of 3 μM to 0.3 nM), trametinib (MEK inhibitor) of a final concentration of 300 nM as a positive control and DMSO, which was the solvent for the subject compounds, as a negative control were diluted 100-fold with a fresh medium and were each added at 4 μL per well, followed by culturing for 24 hours. After culturing, a 30% glyoxal solution (40% glyoxal [from Nacalai Tesque] was diluted with PBS) was quickly added at 30 μL per well, and the plate was allowed to stand for an hour and 30 minutes at room temperature to thus immobilize the cells. Then, the plate was centrifuged (110×g, seven seconds, hereinafter centrifugation was performed under the same conditions unless otherwise specified) to remove the supernatant, and 0.1% Triton X-100-containing PBS was added at 20 μL per well. After allowing the plate to stand for 10 minutes at room temperature, the supernatant was removed by centrifugation, and the same operation was further repeated. Next, 0.5% SDS-containing PBS was added at 20 μL per well. The plate was allowed to stand at room temperature for 30 minutes and was then centrifuged to remove the supernatant. Subsequently, a blocking solution (Intercept Blocking Buffer) was added at 20 μL per well, and the plate was allowed to stand for an hour at room temperature. The supernatant was removed by centrifugation, and an ERK (Thr202/Tyr204) phosphorylation antibody (Phospho-p44/42 MAPK (Erk 1/2) (Thr202/Tyr204) (D13.14.4E) XP Rabbit mAb; from Cell Signaling Technology) diluted 2,500-fold with the blocking solution was added at 15 μL per well as a primary antibody. The plate was allowed to stand at 4° C. overnight.
The next day, the plate was centrifuged to remove the supernatant, and 0.05% Tween-20-containing PBS (from Thermo Scientific; 20×PBS Tween-20 was diluted 20-fold with ion exchange water and used) was added at 50 μL per well. The supernatant was removed by centrifugation to thus wash each well. The washing was performed three times in total. After washing, an anti-rabbit IgG antibody diluted 1,000-fold with the blocking solution was added at 15 μL per well as a secondary antibody, and the plate was allowed to stand for an hour at room temperature. The plate was centrifuged to remove the supernatant, and each well was washed three times with 0.05% Tween-20-containing PBS in the same manner as after the primary antibody reaction. Centrifugation after the third washing was performed at 171×g for 17 seconds. After removing the supernatant, the plate was dried as it was with air at room temperature for three hours or more, and the 800-nm fluorescent signals were measured with Aerius.
With the signaling value at the time of addition of DMSO taken as 0% inhibition and with the signaling value at the time of addition of 300 nM trametinib taken as 100% inhibition, the 50% inhibition values (IC50) were calculated by Sigmoid-Emax model nonlinear regression analysis.
A general note: An ELISA detects its analyte on a solid surface through an enzyme-linked reagent.

As a reminder, the IC50 is the concentration at which inhibition is half-maximal.

Turning to `CO[C@@H](C)COc1nc(NC2CN(C(=O)O[C@H]3C[C@@H](N(C)C)C3)C2)c2cc(C3CC3)c(-c3c(C)c(F)cc4[nH]ncc34)c(OCc3ccc(-c4cn([C@H](C(=O)N5C[C@H](O)C[C@H]5C(=O)N[C@@H](CO)c5ccc(-c6scnc6C)cc5)C(C)C)nn4)cc3)c2n1` (atropisomer, axis not shown; (M)) [Example 11, (1s,3R)-3-(dimethylamino)cyclobutyl 3-({(7M)-6-cyclopropyl-7-(6-fluoro-5-methyl-1H-indazol-4-yl)-8-{[4-(1-{(2S)-1-[(2S,4R)-4-hydroxy-2-({(1R)-2-hydroxy-1-[4-(4-methyl-1,3-thiazol-5-yl)phenyl]ethyl}carbamoyl)pyrrolidin-1-yl]-3-methyl-1-oxobutan-2-yl}-1H-1,2,3-triazol-4-yl)phenyl]methoxy}-2-[(2S)-2-methoxypropoxy]quinazolin-4-yl}amino)azetidine-1-carboxylate], the “Anti-tumor activity at final measurement (PK-59 xenograft mouse), tumor growth inhibition” value with PK-59 xenograft came out at 95% inhibition. For the same molecule, in the test on PA-TU-8902 xenograft, the “Anti-tumor activity at final measurement (PA-TU-8902 xenograft mouse), tumor growth inhibition” value came to 73% inhibition. Moreover, the IC50 in test [1] turned out to be 14 nM. For `CO[C@@H](C)COc1cc(OC2CN(C(=O)N3CC(CN(C)C)C3)C2)c2cc(C3CC3)c(-c3c(C)c(F)cc4[nH]ncc34)c(OCc3ccc(-c4cn([C@H](C(=O)N5C[C@H](O)C[C@H]5C(=O)N[C@@H](CO)c5ccc(-n6cncn6)cc5)C(C)C)nn4)cc3)c2n1` (atropisomer, axis not shown; (M)) [Example 5, (4R)-1-[(2S)-2-(4-{4-[({(7M)-6-cyclopropyl-4-[(1-{3-[(dimethylamino)methyl]azetidine-1-carbonyl}azetidin-3-yl)oxy]-7-(6-fluoro-5-methyl-1H-indazol-4-yl)-2-[(2S)-2-methoxypropoxy]quinolin-8-yl}oxy)methyl]phenyl}-1H-1,2,3-triazol-1-yl)-3-methylbutanoyl]-4-hydroxy-N-{(1R)-2-hydroxy-1-[4-(1H-1,2,4-triazol-1-yl)phenyl]ethyl}-L-prolinamide], in that order: 92% inhibition, 56% inhibition and 8 nM.

For `CO[C@@H](C)COc1cc(OC2CN(C(=O)O[C@H]3C[C@@H](N(C)C)C3)C2)c2cc(C3CC3)c(-c3c(C)c(F)cc4[nH]ncc34)c(OCc3ccc(-c4cn([C@H](C(=O)N5C[C@H](O)C[C@H]5C(=O)N[C@@H](CO)c5ccc(-n6cncn6)cc5)C(C)C)nn4)cc3)c2n1` (atropisomer, axis not shown; (M)) [Example 13, (1s,3R)-3-(dimethylamino)cyclobutyl 3-({(7M)-6-cyclopropyl-7-(6-fluoro-5-methyl-1H-indazol-4-yl)-8-{[4-(1-{(2S)-1-[(2S,4R)-4-hydroxy-2-({(1R)-2-hydroxy-1-[4-(1H-1,2,4-triazol-1-yl)phenyl]ethyl}carbamoyl)pyrrolidin-1-yl]-3-methyl-1-oxobutan-2-yl}-1H-1,2,3-triazol-4-yl)phenyl]methoxy}-2-[(2S)-2-methoxypropoxy]quinolin-4-yl}oxy)azetidine-1-carboxylate], the “Anti-tumor activity at final measurement (PK-59 xenograft mouse), tumor growth inhibition” value with PK-59 xenograft was 78% inhibition. For the same molecule, the “Anti-tumor activity at final measurement (PA-TU-8902 xenograft mouse), tumor growth inhibition” value in the test on PA-TU-8902 xenograft is on record as 57% inhibition. The IC50 in test [1] stood at 9 nM.

For `Cc1ncsc1-c1ccc([C@H](CO)NC(=O)[C@@H]2C[C@@H](O)CN2C(=O)[C@H](C(C)C)n2cc(-c3ccc(COc4c(-c5c(C)c(F)cc6[nH]ncc56)c(C5CC5)cc5c(NC6CN(c7ncccn7)C6)nc(OC6CCOCC6)nc45)cc3)nn2)cc1` [Example 15, (4R)-1-[(2S)-2-{4-[4-({[(7M)-6-cyclopropyl-7-(6-fluoro-5-methyl-1H-indazol-4-yl)-2-[(oxan-4-yl)oxy]-4-{[1-(pyrimidin-2-yl)azetidin-3-yl]amino}quinazolin-8-yl]oxy}methyl)phenyl]-1H-1,2,3-triazol-1-yl}-3-methylbutanoyl]-4-hydroxy-N-{(1R)-2-hydroxy-1-[4-(4-methyl-1,3-thiazol-5-yl)phenyl]ethyl}-L-prolinamide], the IC50 in test [1] came out at 42 nM. On to `CO[C@@H](C)COc1cc(OC2CN(C(=O)N3CC(CN(C)C)C3)C2)c2cc(C3CC3)c(-c3c(C)c(F)cc4[nH]ncc34)c(OCc3ccc(-c4cn([C@H](C(=O)N5C[C@H](O)C[C@H]5C(=O)N[C@@H](CO)c5ccc(-c6scnc6C)cc5)C(C)C)nn4)cc3)c2n1` (atropisomer, axis not shown; (M)) [Example 14, (4R)-1-[(2S)-2-(4-{4-[({(7M)-6-cyclopropyl-4-[(1-{3-[(dimethylamino)methyl]azetidine-1-carbonyl}azetidin-3-yl)oxy]-7-(6-fluoro-5-methyl-1H-indazol-4-yl)-2-[(2S)-2-methoxypropoxy]quinolin-8-yl}oxy)methyl]phenyl}-1H-1,2,3-triazol-1-yl)-3-methylbutanoyl]-4-hydroxy-N-{(1R)-2-hydroxy-1-[4-(4-methyl-1,3-thiazol-5-yl)phenyl]ethyl}-L-prolinamide], for which the IC50 in test [1] is 10 nM.

As to `CO[C@@H](C)COc1nc(N2CCOCC2)c2cc(C3CC3)c(-c3c(C)c(F)cc4[nH]ncc34)c(OCc3ccc(-c4cn([C@H](C(=O)N5C[C@H](O)C[C@H]5C(=O)N[C@@H](CO)c5ccc(-c6scnc6C)cc5)C(C)C)nn4)cc3)c2n1` (atropisomer, axis not shown) [Example 21], the IC50 in test [1] turned out to be 19 nM. As to `CO[C@@H](C)COc1nc(OC2CN(C(=O)NCCN(C)C)C2)c2cc(C3CC3)c(-c3c(C)c(F)cc4[nH]ncc34)c(OCc3ccc(-c4cn([C@H](C(=O)N5C[C@H](O)C[C@H]5C(=O)N[C@@H](CO)c5ccc(-c6scnc6C)cc5)C(C)C)nn4)cc3)c2n1` (atropisomer, axis not shown) [Example 17], the IC50 in test [1] turned out to be 23 nM.
